Measured values reported in patent US20240000075A1, “FUNGICIDAL ARYL AMIDINES” (CORTEVA AGRISCIENCE LLC, priority 2020, published 2024).
Like-named read-outs stand apart in the source and are kept apart here.

Assays:
[1] = tested on: Zymoseptoria tritici; assay: Septoria leaf blotch of wheat, whole-plant fungicidal activity (SEPTTR); type: in vivo, Zymoseptoria tritici on wheat plants (variety 'Yuma'); conditions: read-out: % Disease Control Rating SEPTTR
Experimental: Example A: Evaluation of Fungicidal Activity: Septoria Leaf Blotch of Wheat (Zymoseptoria tritici; Bayer Code […]) Technical grades of materials were dissolved in acetone, which were then mixed with nine volumes of water (H2O) containing 110 ppm Triton X-100. The fungicide solutions were applied onto wheat seedlings using an automated booth sprayer to run-off. All sprayed plants were allowed to air dry prior to further handling. All fungicides were evaluated using the aforementioned method for their activity vs. all target diseases, unless stated otherwise. Wheat plants (variety 'Yuma') were grown from seed in a greenhouse in soil-less potting mix until the first leaf was fully emerged, with 7-10 seedlings per pot. These plants were inoculated with an aqueous spore suspension of Zymoseptoria tritici either 3 days prior to fungicide treatment (3 day curative; 3DC) or 1 day after fungicide treatment (1 day protectant; 1DP). After inoculation the plants were kept in 100% relative humidity for three days to permit spores to germinate and infect the leaf. The plants were then transferred to a greenhouse for disease to develop. When disease symptoms were fully expressed on the 1st leaves of untreated plants, infection levels were assessed on a scale of 0 to 100 percent disease severity. Percent disease control was calculated using the ratio of disease severity on treated plants relative to untreated plants.

[2] = tested on: Puccinia triticina; assay: Wheat brown rust, whole-plant fungicidal activity (PUCCRT); type: in vivo, Puccinia triticina on wheat plants (variety 'Yuma'); conditions: 24 h, 1DP (1 day protectant), read-out: % Disease Control Rating PUCCRT
Experimental: Technical grades of materials were dissolved in acetone, which were then mixed with nine volumes of water (H2O) containing 110 ppm Triton X-100. The fungicide solutions were applied onto wheat seedlings using an automated booth sprayer to run-off. All sprayed plants were allowed to air dry prior to further handling. All fungicides were evaluated using the aforementioned method for their activity vs. all target diseases, unless stated otherwise.
Example B: Evaluation of Fungicidal Activity: Wheat Brown Rust (Puccinia triticina; Synonym: Puccinia recondita f sp. tritici; Bayer Code PUCCRT)
Wheat plants (variety ‘Yuma’) were grown from seed in a greenhouse in soil-less potting mix until the first leaf was fully emerged, with 7-10 seedlings per pot. These plants were inoculated with an aqueous spore suspension of Puccinia triticina after fungicide treatments. After inoculation, the plants were kept in a dark dew room with 100% relative humidity overnight to permit spores to germinate and infect the leaf. The plants were then transferred to a greenhouse for disease to develop. Fungicide formulation, application and disease assessment followed the procedures as described in Example A.

[3] = tested on: Phakopsora pachyrhizi; assay: Asian soybean rust, whole-plant fungicidal activity (PHAKPA); type: in vivo; conditions: read-out: % Disease Control Rating PHAKPA
Experimental: Example C: Evaluation of Fungicidal Activity: Asian Soybean Rust (Phakopsora pachyrhizi; Bayer Code […]) Technical grades of materials were dissolved in acetone, which were then mixed with nine volumes of H2O containing 0.011% Tween-20. The fungicide solutions were applied onto soybean seedlings using an automated booth sprayer to run-off. All sprayed plants were allowed to air dry prior to further handling. Soybean plants (variety 'Williams 82') were grown in soil-less potting mix, with one plant per pot. Ten-day-old seedlings were used for testing. Plants were inoculated as described in Example A. Plants were incubated for 24 h in a dark dew room with 100% relative humidity then transferred to a growth room for disease to develop. Fungicide formulation and application were made as described in Example A. When disease symptoms were fully expressed, disease severity was assessed on the sprayed leaves on a scale of 0 to 100 percent. Percent disease control was calculated using the ratio of disease severity on treated plants relative to untreated plants.

[4] = tested on: Rhynchosporium commune; assay: Leaf blotch of barley, whole-plant fungicidal activity (RHYNSE); type: in vivo; conditions: 24 h, 1DP (1 day protectant), read-out: % Disease Control Rating RHYNSE
Experimental: Technical grades of materials were dissolved in acetone, which were then mixed with nine volumes of water (H2O) containing 110 ppm Triton X-100. The fungicide solutions were applied onto wheat seedlings using an automated booth sprayer to run-off. All sprayed plants were allowed to air dry prior to further handling. All fungicides were evaluated using the aforementioned method for their activity vs. all target diseases, unless stated otherwise. Example D: Evaluation of Fungicidal Activity: Leaf Blotch of Barley (Rhynchosporium commune; Bayer Code […]) Barley plants (variety 'Harrington') were grown from seed in a greenhouse in soil-less potting mix until the first leaf was fully emerged, with 7-10 seedlings per pot. These plants were inoculated with an aqueous spore suspension of Rhynchosporium commune after fungicide treatments. After inoculation, the plants were kept in a dark dew room with 100% relative humidity for two days to permit spores to germinate and infect the leaf. The plants were then transferred to a greenhouse for disease to develop. Fungicide formulation and application were made as described in Example A. Disease assessment was conducted as described in Example A.

Compound | pest or weed control at 200 ppm ([1]; 24 h, 1DP (1 day protectant)) [%] | pest or weed control at 200 ppm ([1]; 72 h, 3DC (3 day curative)) [%] | pest or weed control at 200 ppm [2] [%] | pest or weed control at 200 ppm ([3]; 24 h, 1DP (1 day protectant)) [%] | pest or weed control at 200 ppm ([3]; 72 h, 3DC (3 day curative)) [%] | pest or weed control at 200 ppm [4] [%]
C=CCN(C)/C(S)=N/c1cc(C)c(C(=O)CC2CCCCC2)cc1C [Compound 45] | < 20 | < 20 | > 85 | 20 to 50 | 50 to 85 | < 20
Cc1cc(C(=O)CC2CCCCC2)c(C)cc1/N=C(\S)N(C)CC(F)(F)F [Compound 46] | < 20 | < 20 | < 20 | 20 to 50 | < 20 | < 20
Cc1cc(C(=O)CC2CCCCC2)c(C)cc1/N=C(\S)N(C)C(C)C [Compound 47] | > 85 | < 20 | > 85 | > 85 | > 85 | 20 to 50
Cc1cc(C(=O)CC2CCCCC2)c(C)cc1/N=C(\S)N(C)C1CCCCC1 [Compound 48] | < 20 | < 20 | < 20 | < 20 | < 20 | < 20
Cc1cc(C(=O)CC2CCCCC2)c(C)cc1/N=C(\S)N1CCCC1 [Compound 49] | 20 to 50 | < 20 | > 85 | > 85 | 50 to 85 | < 20
Cc1cc(C(=O)CC2CCCCC2)c(C)cc1/N=C(\S)N1CCCCC1 [Compound 50] | > 85 | 20 to 50 | > 85 | > 85 | > 85 | < 20
Cc1cc(C(=O)CC2CCCCC2)c(C)cc1/N=C(\S)N(C)c1ccccc1 [Compound 51] | 20 to 50 | < 20 | < 20 | < 20 | < 20 | < 20
Cc1cc(C(=O)CC2CCCCC2)c(C)cc1/N=C(\S)N(C)C [Compound 52] | 20 to 50 | < 20 | > 85 | > 85 | 50 to 85 | < 20
Cc1cc(C(=O)CC2CCCCC2)c(C)cc1/N=C(\S)N(C)Cc1ccccc1 [Compound 53] | < 20 | < 20 | < 20 | < 20 | < 20 | < 20
Cc1cc(C(=O)CC2CCCCC2)c(C)cc1/N=C(\S)N(C)C1CC1 [Compound 54] | > 85 | < 20 | > 85 | > 85 | 50 to 85 | < 20
CCN(CC)/C(S)=N/c1cc(C)c(C(=O)CC2CCCCC2)cc1C [Compound 55] | 50 to 85 | < 20 | > 85 | > 85 | > 85 | < 20
Cc1cc(C(=O)CC2CCCCC2)c(C)cc1/N=C/N(C)Cc1ccccc1 [Compound 56] | < 20 | < 20 | 20 to 50 | < 20 | < 20 | < 20
